{"source": "patent EP1311486B1", "about": "“USES OF THALIPORPHINE OR ITS DERIVATIVES IN TREATMENT OF CARDIAC DISEASES AND PREPARATION OF SAME” (Lotus Pharmaceutical Co., Ltd., priority 2000, dated 2002)", "key": {"[1]": {"tested_on": "rats subjected to 4 hours coronary ligation", "assay": "Area at risk and infarct size after 4 hours coronary ligation (triphenyl tetrazolium chloride-Evan's blue staining)", "assay_type": "in vivo, rat", "settings": "L-NAME 1x10^-3 g/kg", "description": "Infarct size was determined by the triphenyl tetrazolium chloride-Evan's blue staining technique. The rat was sacrificed after its left descending coronary artery had been occluded for 4 hours. The weight of infarct tissue was expressed as a percentage of total ventricular weight or occluded zone. The difference in infarct size was statistically analyzed using unpaired Student's t-test. Table 4 Area at risk and infarct size in vehicle and THP-treated rats subjected to 4 hours coronary ligation\nThe difference in ischemic area and infarct size shown by staining technique after 4 hours of ischemia is evaluated. […] In the vehicle group, the necrotic area expresses either as a percentage of the area at risk (45.2±1.0%) or as a percentage of the total ventricle (19.8±2.2%), indicating the amount of cardiac tissue at risk becomes necrotic. Administration of THP reduces myocardial necrosis extension in a dose dependent manner. This reduction is observed either in the necrotic area/area at risk (38.1±5.0%, 29.0±2.5% and 10.7±1.8%/with 3.5x10^-7, 10^-6, 10^-5 g/kg of THP, respectively) or in the necrotic area/total ventricle (17.9+2.3%, 13.4±1.2% and 5.0±0.9% with 3.5x10^-7, 10^-6, 10^-5 g/kg of THP, respectively)."}, "AV node conduction": {"tested_on": "AV node conduction", "assay": "His bundle electrogram of isolated heart, Langendorff perfusion, atrial pacing at 300 ms cycle length", "set-up": "species or system rats and guinea pigs", "settings": "for atrial effective refractory period (AERP): before drug THP 60 ms, quinidine 40 ms; for ventricular effective refractory period (VERP): before drug THP 160 ms, quinidine 180 ms; for AV node effective refractory period (AVNERP): before drug THP 170 ms, quinidine 130 ms; for wenckbach cycle length (WCL): before drug THP 200 ms, quinidine 150 ms", "description": "The investigation conforms to the Guide for the Care and Use of Laboratory Animals published by the US National Institutes of Health (NIH publication No. 85-23, revised 1996). Adult rats and guinea pigs were killed after hepariniation and anesthetization with urethane (1.25 g/kg i.p.). After isolating the heart, the aorta was perfused with 10µM quinidine and THP, respectively, by Langendorff perfusion. A pair of bipolar electrodes connected with silver wire were placed on the tip of the Triangle of Koch to record the His bundle electrogram. In addition, another pair of bipolar electrodes connected with silver wire were placed on the surface of the right ventricle to record T wave. […] The QT interval, conduction time through the sinoatrial (SA interval), the atrioventricular node (AH interval) and His-purkinje system (HV interval) were recorded, respectively, using electrocardiograph. Similarly, the recovery curve of His-purkinje system (i.e. the relationship of H2V2 and V1H2), atrial and ventricular refractory period and AV node refractory period were also recorded in the same manner. 1 and 2.\nThe SA, AH, HV intervals and T wave are prolonged in the quinidine-treated heart (FIG. 1). […] In addition, 3, 10 and 30µM THP can prolong the atrial effective refractory period (AERP) from 60 ms to 90, 100 and 120 ms, respectively; the ventricular effective refractory period (VERP) from 160 ms to 160, 170 and 190 ms, respectively; and the AV node effective refractory period (AVNERP) from 170 ms to 170, 200 and 240 ms, respectively. When compared with THP in the same manner, 3,10 and 30µM quinidine can prolong the AERP from 40 ms to 60, 80 and 130 ms; the VERP from 180 ms to 170, 180 and 190 ms; and the AVNERP from 130 ms to 150, 200 and 245 ms, respectively. Further, 3, 10 and 30µM THP can change the wenckbach cycle length (WCL) from 200 ms to 210, 230 and 280 ms, respectively; whereas 3, 10 and 30µM quinidine can change the WCL from 150 ms to 170, 210 and 300 ms, respectively. Both THP and quinidine prolong AERP, VERP and AVNERP, however, only quinidine inhibits conduction in AV node (prolonged AH interval). In contrast, even when the THP concentration raised to 10µM, the conduction in AV node is not inhibited."}, "[2]": {"tested_on": "guinea pig right ventricular strips", "assay": "Ouabain-induced arrhythmia in electrically driven right ventricular strips", "settings": "10-20µM after 0.6-0.8µM ouabain", "description": "The arrhythmia was then induced 5-10 minutes after. 10-20µM THP or its derivatives were administered to reverse the ouabain-induced arrhythmia. 6-7.\nReferring to FIGs. […] The arrhythmia is then induced 5-10 minutes after."}}}
{"smiles": "COC(=O)[C@@H](N)CCCNC(=N)N[N+](=O)[O-]", "note": "[L-NAME, N^∞-nitro-L-arginine methyl ester, reference compound]", "values": [{"measurement": "Area at risk (% of ventricle)", "setting": "[1]", "result": "47.5±0.2 % of ventricle"}, {"measurement": "Necrotic (% of Area at risk)", "setting": "[1]", "result": "45.1±7.2 % of Area at risk"}, {"measurement": "Necrotic (% of ventricle)", "setting": "[1]", "result": "21.4±3.5 % of ventricle"}]}
{"smiles": "C=C[C@H]1C[N@@]2CC[C@H]1C[C@@H]2[C@@H](O)c1ccnc2ccc(OC)cc12", "note": "[quinidine]", "values": [{"measurement": "atrial effective refractory period (AERP)", "setting": "AV node conduction; 3µM", "result": 60, "unit": "ms"}, {"measurement": "ventricular effective refractory period (VERP)", "setting": "AV node conduction; 3µM", "result": 170, "unit": "ms"}, {"measurement": "AV node effective refractory period (AVNERP)", "setting": "AV node conduction; 3µM", "result": 150, "unit": "ms"}, {"measurement": "wenckbach cycle length (WCL)", "setting": "AV node conduction; 3µM", "result": 170, "unit": "ms"}, {"measurement": "AH interval (conduction in AV node)", "setting": "AV node conduction; 10µM, isolated perfused heart", "result": "prolonged"}, {"measurement": "HV interval", "setting": "AV node conduction; 10µM, isolated perfused heart", "result": "prolonged"}, {"measurement": "SA interval", "setting": "AV node conduction; 10µM, isolated perfused heart", "result": "prolonged"}, {"measurement": "T wave", "setting": "AV node conduction; 10µM, isolated perfused heart", "result": "prolonged"}, {"measurement": "atrial effective refractory period (AERP)", "setting": "AV node conduction; 10µM", "result": 80, "unit": "ms"}, {"measurement": "ventricular effective refractory period (VERP)", "setting": "AV node conduction; 10µM", "result": 180, "unit": "ms"}, {"measurement": "AV node effective refractory period (AVNERP)", "setting": "AV node conduction; 10µM", "result": 200, "unit": "ms"}, {"measurement": "wenckbach cycle length (WCL)", "setting": "AV node conduction; 10µM", "result": 210, "unit": "ms"}, {"measurement": "atrial effective refractory period (AERP)", "setting": "AV node conduction; 30µM", "result": 130, "unit": "ms"}, {"measurement": "ventricular effective refractory period (VERP)", "setting": "AV node conduction; 30µM", "result": 190, "unit": "ms"}, {"measurement": "AV node effective refractory period (AVNERP)", "setting": "AV node conduction; 30µM", "result": 245, "unit": "ms"}, {"measurement": "wenckbach cycle length (WCL)", "setting": "AV node conduction; 30µM", "result": 300, "unit": "ms"}, {"measurement": "reversal of ouabain-induced arrhythmia", "setting": "[2]", "result": "does not reveal the efficacy"}]}
